pIC50: −log10 of the molar value. Like-named read-outs stand apart in the source and are kept apart here. Positions of bridges follow the written chain, without caps; N, C: chain ends. Non-standard residues stand in square brackets, D forms with d. Residues, ends and D or L forms follow the SMILES beside them. *: point of attachment. Pent4ynoyl = C#CCCC(=O)*; Abu = CC[C@H](N)C(=O)O
Tests used:
Assay in all cases: cell-based
hNav1.5 = hNav1.5 (Homo sapiens, UniProt Q14524)
hNav1.3 = hNav1.3 (Homo sapiens, UniProt Q9NY46); conditions: IonWorks Quattro, read-out: IWQ Use Nav1.3
Sequence of hNav1.3 (Q9NY46 whole entry, looked up): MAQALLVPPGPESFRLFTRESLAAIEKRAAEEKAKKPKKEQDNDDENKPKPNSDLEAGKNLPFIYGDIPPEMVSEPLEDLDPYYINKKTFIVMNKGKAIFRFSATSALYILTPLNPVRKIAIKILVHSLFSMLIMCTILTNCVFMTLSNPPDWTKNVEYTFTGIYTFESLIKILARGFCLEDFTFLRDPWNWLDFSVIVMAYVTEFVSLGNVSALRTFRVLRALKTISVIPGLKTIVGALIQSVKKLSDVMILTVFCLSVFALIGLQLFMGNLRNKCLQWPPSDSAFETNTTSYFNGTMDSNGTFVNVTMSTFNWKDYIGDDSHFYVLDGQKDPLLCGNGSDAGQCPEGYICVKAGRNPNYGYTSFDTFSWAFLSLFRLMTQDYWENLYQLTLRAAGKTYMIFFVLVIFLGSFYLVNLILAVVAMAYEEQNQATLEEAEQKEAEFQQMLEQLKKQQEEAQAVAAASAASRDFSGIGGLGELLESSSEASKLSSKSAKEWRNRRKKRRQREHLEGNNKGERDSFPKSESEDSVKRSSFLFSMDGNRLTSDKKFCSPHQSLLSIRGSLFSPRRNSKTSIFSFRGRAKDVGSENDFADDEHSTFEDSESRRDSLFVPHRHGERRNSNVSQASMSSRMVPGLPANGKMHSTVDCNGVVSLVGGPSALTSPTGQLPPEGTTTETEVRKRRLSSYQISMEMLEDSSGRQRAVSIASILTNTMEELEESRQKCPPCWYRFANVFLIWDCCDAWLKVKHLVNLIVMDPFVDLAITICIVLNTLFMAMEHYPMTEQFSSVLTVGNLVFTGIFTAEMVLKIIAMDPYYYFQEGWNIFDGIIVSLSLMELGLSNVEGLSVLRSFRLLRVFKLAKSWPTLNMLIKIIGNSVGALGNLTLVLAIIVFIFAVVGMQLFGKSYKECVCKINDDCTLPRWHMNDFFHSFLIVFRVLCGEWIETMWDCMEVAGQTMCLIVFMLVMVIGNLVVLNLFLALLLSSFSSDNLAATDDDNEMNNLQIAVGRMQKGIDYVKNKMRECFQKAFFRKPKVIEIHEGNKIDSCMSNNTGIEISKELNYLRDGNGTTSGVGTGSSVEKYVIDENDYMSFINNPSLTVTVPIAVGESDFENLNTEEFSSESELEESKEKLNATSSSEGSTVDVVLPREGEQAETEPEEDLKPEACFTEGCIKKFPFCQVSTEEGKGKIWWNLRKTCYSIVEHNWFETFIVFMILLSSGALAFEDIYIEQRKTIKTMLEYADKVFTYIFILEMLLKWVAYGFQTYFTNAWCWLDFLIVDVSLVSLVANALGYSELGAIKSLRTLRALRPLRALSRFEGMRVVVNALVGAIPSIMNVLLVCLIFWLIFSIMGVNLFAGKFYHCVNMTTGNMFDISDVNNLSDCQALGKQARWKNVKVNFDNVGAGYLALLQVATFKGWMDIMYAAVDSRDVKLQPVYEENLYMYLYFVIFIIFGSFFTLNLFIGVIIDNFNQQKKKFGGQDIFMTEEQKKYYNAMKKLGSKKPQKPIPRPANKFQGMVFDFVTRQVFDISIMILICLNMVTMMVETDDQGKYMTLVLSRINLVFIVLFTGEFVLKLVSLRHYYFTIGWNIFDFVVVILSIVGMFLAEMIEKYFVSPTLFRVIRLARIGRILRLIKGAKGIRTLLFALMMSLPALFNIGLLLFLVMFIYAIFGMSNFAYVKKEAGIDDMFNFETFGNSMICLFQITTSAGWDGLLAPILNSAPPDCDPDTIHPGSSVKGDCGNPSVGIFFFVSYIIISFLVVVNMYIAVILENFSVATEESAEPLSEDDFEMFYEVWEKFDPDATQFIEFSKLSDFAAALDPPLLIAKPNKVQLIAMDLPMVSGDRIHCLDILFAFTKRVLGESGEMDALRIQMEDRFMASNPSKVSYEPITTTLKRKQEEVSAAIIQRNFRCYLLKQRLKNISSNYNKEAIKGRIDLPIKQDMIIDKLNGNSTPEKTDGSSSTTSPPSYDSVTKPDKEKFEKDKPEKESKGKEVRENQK

hNav1.7 = hNav1.7 (Homo sapiens, UniProt Q15858); type: cell-based
[1] = IonWorks Quattro, use-dependent block, hNav1.5, read-out: IWQ Use Nav1.5
[2] = IonWorks Quattro, use-dependent block, hNav1.7, read-out: IWQ Use Nav1.7
[3] = use-dependent protocol, hNav1.3
[4] = IonWorks Quattro, use-dependent protocol, hNav1.7, read-out: IWQ Use Nav1.7

Sequence of hNav1.5 (Q14524 whole entry, looked up): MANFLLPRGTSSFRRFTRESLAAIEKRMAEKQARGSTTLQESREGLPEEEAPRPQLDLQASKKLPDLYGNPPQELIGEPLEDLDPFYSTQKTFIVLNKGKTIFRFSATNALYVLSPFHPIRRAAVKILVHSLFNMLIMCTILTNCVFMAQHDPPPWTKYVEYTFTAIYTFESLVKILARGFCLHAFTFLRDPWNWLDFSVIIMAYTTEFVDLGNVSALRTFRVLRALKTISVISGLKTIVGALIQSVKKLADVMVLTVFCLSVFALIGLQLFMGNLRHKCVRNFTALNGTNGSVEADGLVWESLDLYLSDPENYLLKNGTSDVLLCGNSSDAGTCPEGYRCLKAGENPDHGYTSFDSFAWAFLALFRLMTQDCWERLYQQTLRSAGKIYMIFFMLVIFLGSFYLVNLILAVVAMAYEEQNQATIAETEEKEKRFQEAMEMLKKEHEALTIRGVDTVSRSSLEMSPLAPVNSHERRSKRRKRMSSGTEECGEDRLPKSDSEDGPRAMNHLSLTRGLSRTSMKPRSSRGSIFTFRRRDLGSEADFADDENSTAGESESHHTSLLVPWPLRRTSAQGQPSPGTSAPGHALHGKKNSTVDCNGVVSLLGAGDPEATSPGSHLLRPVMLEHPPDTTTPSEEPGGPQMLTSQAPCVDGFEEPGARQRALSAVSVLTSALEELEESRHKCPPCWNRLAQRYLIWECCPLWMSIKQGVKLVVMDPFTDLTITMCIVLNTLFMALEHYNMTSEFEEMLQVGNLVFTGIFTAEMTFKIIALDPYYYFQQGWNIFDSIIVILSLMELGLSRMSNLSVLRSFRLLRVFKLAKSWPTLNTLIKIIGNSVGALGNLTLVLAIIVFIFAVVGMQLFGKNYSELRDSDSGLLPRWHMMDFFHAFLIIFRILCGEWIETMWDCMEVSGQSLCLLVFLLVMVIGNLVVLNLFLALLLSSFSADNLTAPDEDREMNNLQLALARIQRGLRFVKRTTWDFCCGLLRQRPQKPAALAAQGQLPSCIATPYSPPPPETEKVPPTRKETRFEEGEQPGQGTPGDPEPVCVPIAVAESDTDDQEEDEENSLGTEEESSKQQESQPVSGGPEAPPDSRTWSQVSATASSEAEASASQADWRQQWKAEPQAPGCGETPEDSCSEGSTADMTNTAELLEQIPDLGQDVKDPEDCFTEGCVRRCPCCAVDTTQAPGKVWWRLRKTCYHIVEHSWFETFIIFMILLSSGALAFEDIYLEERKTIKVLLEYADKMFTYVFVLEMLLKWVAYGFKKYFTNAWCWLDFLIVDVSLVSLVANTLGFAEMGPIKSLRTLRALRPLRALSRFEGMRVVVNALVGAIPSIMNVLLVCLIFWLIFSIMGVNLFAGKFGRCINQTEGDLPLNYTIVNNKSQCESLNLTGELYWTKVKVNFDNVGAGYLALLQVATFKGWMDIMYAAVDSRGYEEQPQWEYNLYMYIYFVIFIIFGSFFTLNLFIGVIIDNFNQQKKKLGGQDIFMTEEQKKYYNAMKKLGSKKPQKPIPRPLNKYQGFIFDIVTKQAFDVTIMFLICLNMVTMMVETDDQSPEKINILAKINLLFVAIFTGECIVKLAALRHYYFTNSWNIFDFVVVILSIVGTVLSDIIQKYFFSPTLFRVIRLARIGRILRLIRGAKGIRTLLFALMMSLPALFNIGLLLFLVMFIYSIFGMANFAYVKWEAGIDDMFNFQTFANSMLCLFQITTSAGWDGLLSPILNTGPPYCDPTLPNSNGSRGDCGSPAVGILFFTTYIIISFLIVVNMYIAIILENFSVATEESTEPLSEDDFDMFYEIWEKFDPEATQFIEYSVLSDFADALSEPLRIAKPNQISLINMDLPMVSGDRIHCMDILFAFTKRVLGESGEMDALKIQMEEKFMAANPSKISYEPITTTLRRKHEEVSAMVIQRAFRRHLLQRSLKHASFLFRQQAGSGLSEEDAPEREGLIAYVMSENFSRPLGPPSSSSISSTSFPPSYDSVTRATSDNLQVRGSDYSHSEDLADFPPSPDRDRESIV

SMILES | pIC50 (hNav1.5; [1]) | pIC50 (hNav1.3; use-dependent block, hNav1.3) | pIC50 (hNav1.7; [2]) | pIC50 (hNav1.3; [3]) | pIC50 (hNav1.7; [4]) | other results
CC[C@H](C)[C@@H]1NC(=O)[C@@H]2CSSC[C@@H]3NC(=O)[C@H](C(C)C)NC(=O)[C@H](CC(C)C)NC(=O)[C@H](CC(N)=O)NC(=O)[C@@H]4CCCN4C(=O)[C@H](CCCNC(=N)N)NC(=O)[C@H](CSSC[C@H](NC(=O)[C@@H](N)CC(=O)O)C(=O)N[C@@H](CC(C)C)C(=O)NCC(=O)N[C@@H](Cc4ccccc4)C(=O)N[C@@H](CCSC)C(=O)N[C@@H](CCCNC(=N)N)C(=O)N[C@@H](CCCCN)C(=O)N2)NC(=O)[C@H](CSSC[C@@H](C(=O)N[C@@H](CCCCN)C(=O)N[C@@H](Cc2ccc(O)cc2)C(=O)N[C@H](C(=O)N[C@@H](CC(C)C)C(N)=O)C(C)C)NC(=O)[C@H](Cc2c[nH]c4ccccc24)NC(=O)[C@H](CCCCN)NC(=O)[C@H](Cc2c[nH]cn2)NC(=O)[C@H]([C@@H](C)O)NC(=O)[C@H](CCCNC(=N)N)NC(=O)[C@H](CO)NC3=O)NC(=O)[C@H](CCCCN)NC(=O)[C@H](CC(=O)O)NC(=O)[C@H](CC(N)=O)NC(=O)[C@H](CC(=O)O)NC(=O)[C@@H]2CCCN2C1=O [compound 122] (H-DCLGFMRKCIPDNDKCCRPNLVCSRTHKWCKYVL-NH2; disulfide 2-17, 9-23, 16-30) | – | – | – | – | – | pIC50 (hNav1.5; IonWorks Quattro, use-dependent, […], read-out: IWQ Use Nav1.5): 5.07; pIC50 (hNav1.3; use-dependent, […]): 6.89; pIC50 (hNav1.7; IonWorks Quattro, use-dependent, […], read-out: IWQ Use Nav1.7): 6.62
CC[C@H](C)[C@@H]1NC(=O)[C@@H]2CSSC[C@@H]3NC(=O)[C@H](C(C)C)NC(=O)[C@H](CC(C)C)NC(=O)[C@H](CC(N)=O)NC(=O)[C@@H]4CCCN4C(=O)[C@H](CCCNC(=N)N)NC(=O)[C@H](CSSC[C@H](NC(=O)[C@@H](N)CC(=O)O)C(=O)N[C@@H](CC(C)C)C(=O)NCC(=O)N[C@@H](C)C(=O)N[C@@H](CCSC)C(=O)N[C@@H](CCCNC(=N)N)C(=O)N[C@@H](CCCCN)C(=O)N2)NC(=O)[C@H](CSSC[C@@H](C(=O)N[C@@H](CCCCN)C(=O)N[C@@H](Cc2ccc(O)cc2)C(=O)N[C@H](C(=O)N[C@@H](Cc2ccccc2)C(N)=O)C(C)C)NC(=O)[C@H](Cc2c[nH]c4ccccc24)NC(=O)[C@H](CCCNC(=N)N)NC(=O)[C@H](Cc2c[nH]cn2)NC(=O)[C@H]([C@@H](C)O)NC(=O)[C@H](CCCNC(=N)N)NC(=O)[C@H](CO)NC3=O)NC(=O)[C@H](CCCCN)NC(=O)[C@H](CC(=O)O)NC(=O)[C@H](CC(N)=O)NC(=O)[C@H](CC(=O)O)NC(=O)[C@@H]2CCCN2C1=O [compound 260] (H-DCLGAMRKCIPDNDKCCRPNLVCSRTHRWCKYVF-NH2; disulfide 2-17, 9-23, 16-30) | 5.30 | 6.62 | 6.48 | – | – | –
C#CCCC(=O)NCCCC[C@@H]1NC(=O)[C@H](CC(=O)O)NC(=O)[C@@H]2CCCN2C(=O)[C@H]([C@@H](C)CC)NC(=O)[C@@H]2CSSC[C@@H]3NC(=O)[C@H](C(C)C)NC(=O)[C@H](CC(C)C)NC(=O)[C@H](CC(N)=O)NC(=O)[C@@H]4CCCN4C(=O)[C@H](CCCNC(=N)N)NC(=O)[C@H](CSSC[C@H](NC(=O)[C@@H](N)CC(=O)O)C(=O)N[C@@H](CC(C)C)C(=O)NCC(=O)N[C@@H](CC)C(=O)N[C@@H](CC(C)C)C(=O)N[C@@H](CCCNC(=N)N)C(=O)N[C@@H](CCCCN)C(=O)N2)NC(=O)[C@H](CSSC[C@@H](C(=O)N[C@@H](CCCCN)C(=O)N[C@@H](Cc2ccc(O)cc2)C(=O)N[C@H](C(=O)N[C@@H](Cc2ccccc2)C(N)=O)C(C)C)NC(=O)[C@H](Cc2c[nH]c4ccccc24)NC(=O)[C@H](CCC(=O)O)NC(=O)[C@H](Cc2c[nH]cn2)NC(=O)[C@H]([C@@H](C)O)NC(=O)[C@H](CCCNC(=N)N)NC(=O)[C@H](CO)NC3=O)NC(=O)[C@H](CCCCN)NC(=O)[C@H](CC(=O)O)NC1=O [compound 808] (H-DCLG[Abu]LRKCIPDK(Pent4ynoyl)DKCCRPNLVCSRTHEWCKYVF-NH2; disulfide 2-17, 9-23, 16-30) | < 5.30 | 5.39 | 5.74 | – | – | –
CC[C@H](C)[C@@H]1NC(=O)[C@@H]2CSSC[C@@H]3NC(=O)[C@H](C(C)C)NC(=O)[C@H](CC(C)C)NC(=O)[C@H](CC(N)=O)NC(=O)[C@@H]4CCCN4C(=O)[C@H](CCCNC(=N)N)NC(=O)[C@H](CSSC[C@H](NC(=O)[C@@H](N)CC(=O)O)C(=O)N[C@@H](CC(C)C)C(=O)NCC(=O)N[C@@H](CC4CCCCC4)C(=O)N[C@@H](CC(C)C)C(=O)N[C@@H](CCCNC(=N)N)C(=O)N[C@@H](CCCCN)C(=O)N2)NC(=O)[C@H](CSSC[C@@H](C(=O)N[C@@H](CCCCN)C(=O)N[C@@H](Cc2ccc(O)cc2)C(=O)N[C@H](C(=O)N[C@@H](Cc2ccccc2)C(N)=O)C(C)C)NC(=O)[C@H](Cc2c[nH]c4ccccc24)NC(=O)[C@H](CCCCN)NC(=O)[C@H](Cc2c[nH]cn2)NC(=O)[C@H]([C@@H](C)O)NC(=O)[C@H](CCCNC(=N)N)NC(=O)[C@H](CO)NC3=O)NC(=O)[C@H](CCCCN)NC(=O)[C@H](CC(=O)O)NC(=O)[C@H](CC(N)=O)NC(=O)[C@H](CC(=O)O)NC(=O)[C@@H]2CCCN2C1=O [compound 681] | – | – | – | 7.10 | 7.64 | pIC50 (hNav1.5; IonWorks Quattro, use-dependent protocol, hNav1.5, read-out: IWQ Use Nav1.5): < 5.30
CC[C@H](C)[C@@H]1NC(=O)[C@@H]2CSSC[C@@H]3NC(=O)[C@H](C(C)C)NC(=O)[C@H](CC(C)C)NC(=O)[C@H](CC(N)=O)NC(=O)[C@@H]4CCCN4C(=O)[C@H](CCCNC(=N)N)NC(=O)[C@H](CSSC[C@H](NC(=O)[C@@H](N)CC(=O)O)C(=O)N[C@@H](CC(C)C)C(=O)NCC(=O)N[C@@H](Cc4ccccc4)C(=O)N[C@@H](CCSC)C(=O)N[C@@H](CCCNC(=N)N)C(=O)N[C@@H](CCCCN)C(=O)N2)NC(=O)[C@H](CSSC[C@@H](C(=O)N[C@@H](CCCCN)C(=O)N[C@@H](Cc2ccc(O)cc2)C(=O)N[C@H](C(=O)N[C@@H](Cc2ccccc2)C(N)=O)C(C)C)NC(=O)[C@H](Cc2c[nH]c4ccccc24)NC(=O)[C@H](CCCCN)NC(=O)[C@H](Cc2cnc[nH]2)NC(=O)[C@H](CC(C)C)NC(=O)[C@H](CCCNC(=N)N)NC(=O)[C@H](CO)NC3=O)NC(=O)[C@H](CCCCN)NC(=O)[C@H](CC(=O)O)NC(=O)[C@H](CC(N)=O)NC(=O)[C@H](CC(=O)O)NC(=O)[C@@H]2CCCN2C1=O [SEQ ID NO: 121, [Leu26]GpTx-1] (H-DCLGFMRKCIPDNDKCCRPNLVCSRLHKWCKYVF-NH2; disulfide 2-17, 9-23, 16-30) | – | – | – | – | – | pIC50 (hNav1.5; Table 22, IonWorks Quattro, use, […], read-out: IWQ Use Nav1.5): 4.99; pIC50 (hNav1.3; Table 22, use, […]): 7.15; pIC50 (hNav1.7): 7.15
CC[C@H](C)[C@@H]1NC(=O)[C@@H]2CSSC[C@@H]3NC(=O)[C@H](C(C)C)NC(=O)[C@H](CC(C)C)NC(=O)[C@H](CC(N)=O)NC(=O)[C@@H]4CCCN4C(=O)[C@H](CCCNC(=N)N)NC(=O)[C@H](CSSC[C@H](NC(=O)[C@@H](N)CC(=O)O)C(=O)N[C@@H](CC(C)C)C(=O)NCC(=O)N[C@@H](Cc4ccc(C)cc4)C(=O)N[C@@H](CCSC)C(=O)N[C@@H](CCCNC(=N)N)C(=O)N[C@@H](CCCCN)C(=O)N2)NC(=O)[C@H](CSSC[C@@H](C(=O)N[C@@H](CCCCN)C(=O)N[C@@H](Cc2ccc(O)cc2)C(=O)N[C@H](C(=O)N[C@@H](Cc2ccccc2)C(N)=O)C(C)C)NC(=O)[C@H](Cc2c[nH]c4ccccc24)NC(=O)[C@H](CCCCN)NC(=O)[C@H](Cc2c[nH]cn2)NC(=O)[C@H]([C@@H](C)O)NC(=O)[C@H](CCCNC(=N)N)NC(=O)[C@H](CO)NC3=O)NC(=O)[C@H](CCCCN)NC(=O)[C@H](CC(=O)O)NC(=O)[C@H](CC(N)=O)NC(=O)[C@H](CC(=O)O)NC(=O)[C@@H]2CCCN2C1=O [compound 686] | – | – | – | 6.74 | 6.31 | pIC50 (hNav1.5; IWQ Use Nav1.5): < 5.30
CC[C@H](C)[C@@H]1NC(=O)[C@@H]2CSSC[C@@H]3NC(=O)[C@H](C(C)C)NC(=O)[C@H](CC(C)C)NC(=O)[C@H](CC(N)=O)NC(=O)[C@@H]4CCCN4C(=O)[C@H](CCCNC(=N)N)NC(=O)[C@H](CSSC[C@H](NC(=O)[C@@H](N)CC(=O)O)C(=O)N[C@@H](CC(C)C)C(=O)NCC(=O)N[C@@H](C)C(=O)N[C@@H](CCSC)C(=O)N[C@@H](CCCNC(=N)N)C(=O)N[C@@H](CCCCN)C(=O)N2)NC(=O)[C@H](CSSC[C@@H](C(=O)N[C@@H](CCCCN)C(=O)N[C@@H](Cc2ccc(O)cc2)C(=O)N[C@H](C(=O)N[C@@H](Cc2ccccc2)C(=O)N[C@@H](CCC(=O)O)C(N)=O)C(C)C)NC(=O)[C@H](Cc2c[nH]c4ccccc24)NC(=O)[C@H](CCCCN)NC(=O)[C@H](Cc2c[nH]cn2)NC(=O)[C@H]([C@@H](C)O)NC(=O)[C@H](CCCNC(=N)N)NC(=O)[C@H](CO)NC3=O)NC(=O)[C@H](CCCCN)NC(=O)[C@H](CC(=O)O)NC(=O)[C@H](CC(N)=O)NC(=O)[C@H](CC(=O)O)NC(=O)[C@@H]2CCCN2C1=O [compound 790] (H-DCLGAMRKCIPDNDKCCRPNLVCSRTHKWCKYVFE-NH2; disulfide 2-17, 9-23, 16-30) | 4.55 | < 5.30 | < 5.30 | – | – | –
CC[C@H](C)[C@@H]1NC(=O)[C@@H]2CSSC[C@@H]3NC(=O)[C@H](C(C)C)NC(=O)[C@H](CC(C)C)NC(=O)[C@H](CC(N)=O)NC(=O)[C@@H]4CCCN4C(=O)[C@H](CCCNC(=N)N)NC(=O)[C@H](CSSC[C@H](NC(=O)[C@@H](N)CC(=O)O)C(=O)N[C@@H](CC(C)C)C(=O)NCC(=O)N[C@@H](CCSC)C(=O)N[C@@H](CC(C)C)C(=O)N[C@@H](CCCNC(=N)N)C(=O)N[C@@H](CCCCN)C(=O)N2)NC(=O)[C@H](CSSC[C@@H](C(=O)N[C@@H](CCCCN)C(=O)N[C@@H](Cc2ccc(O)cc2)C(=O)N[C@H](C(=O)N[C@@H](Cc2ccccc2)C(N)=O)C(C)C)NC(=O)[C@H](Cc2c[nH]c4ccccc24)NC(=O)[C@H](CCCCN)NC(=O)[C@H](Cc2c[nH]cn2)NC(=O)[C@H]([C@@H](C)O)NC(=O)[C@H](CCCNC(=N)N)NC(=O)[C@H](CO)NC3=O)NC(=O)[C@H](CCCCN)NC(=O)[C@H](CC(=O)O)NC(=O)[C@H](CC(N)=O)NC(=O)[C@H](CC(=O)O)NC(=O)[C@@H]2CCCN2C1=O [compound 641] (H-DCLGMLRKCIPDNDKCCRPNLVCSRTHKWCKYVF-NH2; disulfide 2-17, 9-23, 16-30) | – | – | – | 6.62 | 7.16 | pIC50 (hNav1.5; IWQ Use Nav1.5): < 5.30

From patent US9340590B2 (priority 2011, dated 2016)
